Experimental data from patent US5266328A, “Laminin a chain polypeptides from the carboxy terminal globular domain” (Regents of the University of Minnesota, priority 1990, dated 1993).

Columns and labels:
[1] = Solid-phase binding of 3H-heparin to peptides adsorbed to plastic plates (RLBA)
Experimental: The binding of ^3 H-heparin to laminin A chain peptides was measured in a direct solid phase binding assay as described below, whereby various amounts of the peptides were adsorbed to plates and ^3 H-heparin was added to each well. More specifically, the binding of ^3 H-heparin (0.3 mCi/mg; Du Pont - New England Nuclear Research Products, Wilmington, Del.) to laminin, synthetic peptides, and bovine serum albumin (BSA) (fatty acid free, fraction V, ICN Immunobiologicals) was quantititated by a solid-phase RLBA in 96-well polystyrene Immulon 1 plates (Dynatech Laboratories, Inc., Alexandria, Va.) as described by Skubitz et al., supra (1988). Specifically, 50 microliters of the various proteins at various concentrations (0.2 μg/well-5.0 μg/well) in PBS containing 0.02% NaN3 was added to each well and dried overnight at 29° C. The next day, 200 μl of 2 mg/ml BSA in PBS was added to each well, followed by a 2 hour incubation at 37° C. After removal of this buffer, 50 μl of ^3 H-heparin (200,000 dpm) was added in RLBA buffer (20 mM Tris, pH 6.8 containing 50 mM NaCl and 2 mg/ml ovalbumin) and the wells were incubated at 37° C. for 2 hours. Unbound ^3 H-heparin was removed by washing three times with wash buffer (RLBA buffer containing 0.1% CHAPS). Tritiated heparin was solubilized by incubation with 200 μl of 0.05N NaOH and 1% SDS for 30 minutes at 60° C. and quantitated in a Beckman LS-3801 scintillation counter.
The above experimental procedure was repeated to determine the percentage of ^3 H-heparin that would adhere to 2 μg/well of each polypeptide after a two-hour incubation in increasing concentrations of salt (NaCl).

[2] = system: human colon carcinoma KM12 C (low metastatic) cell line; experiment: Direct cell adhesion to peptide-coated surfaces; assay type: cell-based; settings: surface coated with 1 μg
From the text: (§1) The murine melanoma K-1735-C10 (low metastatic) and K-1735-M4 (high metastatic) cell lines, murine UV-2237-MM fibrosarcoma cell line, human renal carcinoma SN12 C (low metastatic) and SN12 PM-6 (high metastatic) cell lines, and human colon carcinoma KM12 C (low metastatic) and KM12 SM (high metastatic) cell lines were originally provided by Dr. I. J. Fidler (M.D., Anderson Hospital, University of Texas Health Sciences Center, Houston, Tex.). The human fibrosarcoma HT-1080 cell line was obtained from the ATCC. The MM fibrosarcoma cell line was maintained in DME (GIBCO Laboratories, Grand Island, N.Y.) containing 10% FBS, the murine melanomas were maintained in DMEM containing 10% calf serum, the human fibrosarcoma cells were maintained in EMEM containing 10% heat inactivated FBS, and the human renal and colon carcinoma cells were grown in EME containing 10% FBS, vitamins, and 1 mM sodium pyruvate. Cells were passaged for 4 to 5 weeks and then replaced from frozen stocks of early passage cells to minimize phenotypic drift. Cells were maintained at 37° C. in a humidified incubator containing 5% CO2.
(§2) The direct adhesion of cells to protein or peptide coated surfaces was performed as described in Skubitz et al., Exp. Cell Res., 173, 349-360 (1987) and Charonis et al., supra (1988). Briefly, radiolabeled cells were added to 96-well microtiter plates coated with various concentrations of synthetic peptides, laminin, or BSA (0.02 μg/well-50 μg/well from 50 μl solutions) for various lengths of time. After the incubation period, loosely or nonadherent cells were removed by washing the wells three times. Adherent cells were solubilized and quantitated in a scintillation counter. More specifically, cultures of cells which were 60-80% confluent were metabolically labeled for 24 hours with the addition of 3 μCi/ml of ^3 H-td (tritiated thymidine). On the day of the assay, the cells were harvested by trypsinization, the trypsin was inhibited by the addition of serum, and the cells were washed free of this mixture and resuspended in DMEM buffered with HEPES at pH 7.2. The adhesion medium also contained 2 mg/ml BSA. The cells were adjusted to a concentration of 3-4×10^4 /ml, and 100 μl of this cell suspension was added to the wells. The assay mixture was then incubated at 37° C. for 120 minutes. At the end of the incubation, the wells were washed with warm DMEM/Hepes containing 2 mg/ml BSA, and the adherent population was solubilized with 0.5N NaOH contained 1% SDS. The solubilized cells were then quantitated using a liquid scintillation counter.
(§3) Instead of attempting to characterize the cell binding activity of all 14 of the synthetic peptides, a number of peptides from each of the three heparin binding categories of peptides were evaluated. Microtiter wells were adsorbed with the peptides, laminin, or BSA and a variety of tumor cell lines were tested for the ability to adhere to the ligands. The eight different cell lines selected for this study were of murine or human origin and, in most cases, of either high or low metastatic capacity. […] Many of the peptides that were very good at binding heparin and cells were also capable of inhibiting the adhesion of various cells to surfaces coated with laminin (see below).

[3] = system: human colon carcinoma KM12 SM (high metastatic) cell line; experiment: Direct cell adhesion to peptide-coated surfaces; assay type: cell-based; settings: surface coated with 1 μg
From the text: as §1, §2, §3

[4] = system: human renal carcinoma SN12 C (low metastatic) cell line; experiment: Direct cell adhesion to peptide-coated surfaces; assay type: cell-based; settings: surface coated with 1 μg; human renal (SN12C)
From the text: as §1, §2, §3

[5] = system: human renal carcinoma SN12 PM-6 (high metastatic) cell line; experiment: Direct cell adhesion to peptide-coated surfaces; assay type: cell-based; settings: surface coated with 1 μg; human renal (SN12 PM6)
From the text: as §1, §2, §3

[6] = system: murine UV-2237-MM fibrosarcoma cell line; experiment: Direct cell adhesion to peptide-coated surfaces; assay type: cell-based; settings: surface coated with 1 μg
From the text: as §1, §2, §3

[7] = system: murine melanoma K-1735-C10 (low metastatic) cell line; experiment: Direct cell adhesion to peptide-coated surfaces; assay type: cell-based; settings: surface coated with 1 μg
From the text: as §1, §2, §3

[8] = system: murine melanoma K-1735-M4 (high metastatic) cell line; experiment: Direct cell adhesion to peptide-coated surfaces; assay type: cell-based; settings: surface coated with 1 μg
From the text: as §1, §2, §3

[9] = system: human fibrosarcoma HT-1080 cell line; experiment: Direct cell adhesion to peptide-coated surfaces; assay type: cell-based; settings: surface coated with 1 μg; human fibrosarcoma (HT1080)
From the text: (§4) The murine melanoma K-1735-C10 (low metastatic) and K-1735-M4 (high metastatic) cell lines, murine UV-2237-MM fibrosarcoma cell line, human renal carcinoma SN12 C (low metastatic) and SN12 PM-6 (high metastatic) cell lines, and human colon carcinoma KM12 C (low metastatic) and KM12 SM (high metastatic) cell lines were originally provided by Dr. I. J. Fidler (M.D., Anderson Hospital, University of Texas Health Sciences Center, Houston, Tex.). The human fibrosarcoma HT-1080 cell line was obtained from the ATCC. […]
(§5) The direct adhesion of cells to protein or peptide coated surfaces was performed as described in Skubitz et al., Exp. Cell Res., 173, 349-360 (1987) and Charonis et al., supra (1988). […] Adherent cells were solubilized and quantitated in a scintillation counter. […] The solubilized cells were then quantitated using a liquid scintillation counter.
(§6) Instead of attempting to characterize the cell binding activity of all 14 of the synthetic peptides, a number of peptides from each of the three heparin binding categories of peptides were evaluated. […]
Radiolabeled HT-1080 human fibrosarcoma cells were incubated in the wells for 30 minutes and the adhesion of cells was quantitated.

[10] = system: eight different cell lines of murine or human origin; experiment: Direct cell adhesion, summary over eight tumor cell lines; assay type: cell-based; settings: summary of Table IV over eight cell lines
From the text: as §4, §5, §6

[11] = system: human colon (KM12 C) cells; experiment: Inhibition of cell adhesion to laminin-coated surfaces; assay type: cell-based; settings: soluble peptide 10 μg/ml, surface coated with 1.5 μg of laminin
From the text: as §1
(§7) Inhibition of cell adhesion with synthetic peptides was performed using assays similar to those described by Skubitz et al., supra (1987). Briefly, radiolabeled cells at 5×10^4 /ml were incubated for 30 minutes with various concentrations of synthetic peptides (1.0 μg/ml-200 μg/ml) in DME/Hepes containing 2 mg/ml BSA. One hundred microliters of the cell suspension was then added to wells precoated with 1.5 μg of laminin, 1.0 μg of type IV collagen, or 1.0 μg of fibronectin. The cells were incubated for 30 minutes at 37° C., then the wells were washed and adherent cells were quantitated as previously described [Skubitz et al., supra (1987)]. Cell viability after a one hour incubation in the presence of the "inhibitors" was assessed by trypan blue dye exclusion.

[12] = system: human fibrosarcoma (HT1080) cells; experiment: as above; assay type: cell-based; settings: soluble peptide 20 μg/ml, surface coated with 1.5 μg of laminin
From the text: as §1, §7

[13] = system: human renal (SN12 PM6) cells; experiment: as above; assay type: cell-based; settings: soluble peptide 10 μg/ml, surface coated with 1.5 μg of laminin
From the text: as §1, §7

[14] = system: human renal (SN12C) cells; experiment: as above; assay type: cell-based; settings: soluble peptide 10 μg/ml, surface coated with 1.5 μg of laminin
From the text: as §1, §7

[15] = system: murine fibrosarcoma (MM) cells; experiment: as above; assay type: cell-based; settings: soluble peptide 10 μg/ml, surface coated with 1.5 μg of laminin
From the text: as §1, §7

[16] = system: murine melanoma (C10) cells; experiment: as above; assay type: cell-based; settings: soluble peptide 10 μg/ml, surface coated with 1.5 μg of laminin
From the text: as §1, §7

[17] = system: murine melanoma (M4) cells; experiment: as above; assay type: cell-based; settings: soluble peptide 10 μg/ml, surface coated with 1.5 μg of laminin
From the text: as §1, §7

[18] = system: HT-1080 human fibrosarcoma cells; experiment: Cell spreading assay; assay type: cell-based; settings: for Surface Area Occuppied by a Cell / Surface Area Occupied by a Cell: wells coated at 100 μg/ml, 2 1/2 hour incubation; for Surface Area Occuppied by a Cell: HT-1080, Table VII; for Surface Area Occupied by a Cell: human fibrosarcoma (HT1080), Table VI
Experimental: (§8) Spreading of the adherent cells was evaluated by performing adhesion assays similar to those described above. Twenty-four well tissue culture plates (Becton Dickinson and Co., Lincoln Park, N.J.) were coated with 300 μl of laminin, synthetic peptides, or BSA at 100 μg/ml, then blocked with 2 mg/ml BSA in PBS. Three hundred microliters of a cell suspension at 5×10^4 cells/ml was added to each well, and after a 21/2 hour incubation, nonadherent cells were aspirated out of the wells. Adherent cells were fixed with 2% glutaraldehyde in PBS at 23° C. for one hour. The glutaraldehyde was then removed and the cells were stained by two different techniques. For photographic purposes, the cells were stained with Diff-Quik Solution I (American Scientific Products, McGaw Park, Ill.) for 10 minutes at 23° C. Solution I was removed, then Diff-Quik Solution II was added and the cells were stained for another 10 minutes at 23° C. Wells were washed with PBS, then representative cells were photographed with a Nikon DIAPHOT inverted phase microscope using Panatomic X Film ASA32 (Eastman Kodak, Rochester, N.Y.). Adherent cells to be quantitated for spreading were stained overnight at 23° C. with 500 μl of a solution containing 0.12% (w/v) Coomassie Brilliant Blue R (Sigma Chemical Co.), 5% (v/v) acetic acid, and 50% (v/v) ethanol. Wells were washed three times with 500 μl of PBS and cell spreading was then quantitated by measuring the average surface area occupied by a cell using an Opti-Max Image Analyzer. Thirty cells were measured per well; each experiment was done in quadruplicate and repeated three times. In all cases, the cells spread on the peptides to occupy an area about 60% of that seen on laminin-coated surfaces.

[19] = system: human renal (SN12 PM6) cells; experiment: Cell spreading assay; assay type: cell-based; settings: wells coated at 100 μg/ml, 2 1/2 hour incubation
Experimental: as §8

[20] = system: human renal (SN12C) cells; experiment: Cell spreading assay; assay type: cell-based; settings: wells coated at 100 μg/ml, 2 1/2 hour incubation
Experimental: as §8

[21] = system: murine fibrosarcoma (MM) cells; experiment: Cell spreading assay; assay type: cell-based; settings: wells coated at 100 μg/ml, 2 1/2 hour incubation
Experimental: as §8

Substance | Percentage of Cells Adhered to Surface [2] | Percentage of Cells Adhered to Surface [4] | Percentage of Cells Adhered to Surface [5] | Percentage of Cells Adhered to Surface [6] | Percentage of Cells Adhered to Surface [7] | Percentage of Cells Adhered to Surface [8] | Percentage of Cells Adhered to Surface [9] | Surface Area Occuppied by a Cell [18] | Surface Area Occupied by a Cell [18] | Surface Area Occupied by a Cell [19] | Surface Area Occupied by a Cell [20] | Surface Area Occupied by a Cell [21] | further results
KQNCLSSRASFRGCVRNLRLSR [Peptide R30, laminin A chain residues 3011-3032] | 48% | 84% | 67% | 56% | 82% | 25% | 92% | 392 +/- 27 um2 | 392 ± 27 μm^2 | 311 ± 19 μm^2 | 292 ± 22 μm^2 | 291 ± 21 μm^2 | Heparin Binding (bound ^3 H-heparin as percent of input) ([1]; One microgram peptide adsorbed, 200,000 dpm ^3 H-heparin, 20 mM Tris pH 6.8, 50 mM NaCl, 2 mg/ml ovalbumin): **** (>10% [****]); Bound ^3 H-heparin as percent of input, 0.05M NaCl ([1]; Two micrograms peptide adsorbed, 0.02M Tris pH 6.8, 0.05M NaCl, 2 hr 37 C): **** (>10% (****)); Bound ^3 H-heparin as percent of input, 0.15M NaCl ([1]; Two micrograms peptide adsorbed, 0.02M Tris pH 6.8, 0.15M NaCl, 2 hr 37 C): **** (>10% (****)); Bound ^3 H-heparin as percent of input, 0.5M NaCl ([1]; Two micrograms peptide adsorbed, 0.02M Tris pH 6.8, 0.5M NaCl, 2 hr 37 C): *** (6.0-10.0% (***)); Bound ^3 H-heparin as percent of input, 1.0M NaCl ([1]; Two micrograms peptide adsorbed, 0.02M Tris pH 6.8, 1.0M NaCl, 2 hr 37 C): * (2.0-3.9% (*)); Heparin binding activity group ([1]; grouping of the Table II results in words): very good heparin binding; Percentage of Cells Adhered to Surface [3]: 69%; promotion of cell adhesion, in words [10]: capable of promoting the adhesion of all eight cell lines; Percentage Inhibition of Laminin-Mediated Cell Adhesion [11]: 59%; Percentage Inhibition of Laminin-Mediated Cell Adhesion [12]: 51%; Percentage Inhibition of Laminin-Mediated Cell Adhesion [13]: 44%; Percentage Inhibition of Laminin-Mediated Cell Adhesion [14]: 0%; Percentage Inhibition of Laminin-Mediated Cell Adhesion [15]: 25%; Percentage Inhibition of Laminin-Mediated Cell Adhesion [16]: 22%; Percentage Inhibition of Laminin-Mediated Cell Adhesion [17]: 38%; HT-1080 cell spreading, in words ([18]; ranking of Table VII): promoted the most cell spreading
Laminin: extracellular matrix glycoprotein isolated from the EHS murine tumor; positive control | 11% | 28% | 36% | 53% | 58% | 13% | 41% | 610 +/- 62 um2 | 610 ± 62 μm^2 | 550 ± 29 μm^2 | 520 ± 14 μm^2 | 443 ± 32 μm^2 | –
